Source: US12507703B2, “Methods, devices and compositions for preserving human milk” (The Trustees of Princeton University, priority 2023, dated 2025)
“And” between values parts separate entries of the source, which are not always exact repeats. Equal entries are not always repeated.

system: lipase; assay: Lipase/lipolysis assay (EnzChek Lipase Substrate, quenched BODIPY-fatty acid conjugate) on stored human milk; note: test concentration or dose not given here

| Molecule | Lipase (RFU) |
| --- | --- |
| CC1=C(O)C(=O)C=C2C1=CC=C1[C@@]2(C)CC[C@@]2(C)[C@@H]3C[C@](C)(C(=O)O)CC[C@]3(C)CC[C@]12C [Tripterin] | 952.6128 RFU |
| CCCCCCCCCC(=O)OCC(COC(=O)CCCCCCCCC)OC(=O)CCCCCCCCC [Trisdecanoin] | 969.1379 RFU |
| CN1[C@@H]2CC[C@H]1CC(=O)C2 [Tropinone] | 856.4439 RFU |
| O=C(CO)[C@@H](O[C@H]1O[C@H](CO)[C@@H](O)[C@H](O)[C@H]1O)[C@H](O)[C@H](O)CO [Turanose] | 1221.239 RFU and 697.9672 RFU |
| CC[C@H]1OC(=O)C[C@@H](O)[C@H](C)[C@@H](O[C@@H]2O[C@H](C)[C@@H](O[C@H]3C[C@@](C)(O)[C@@H](O)[C@H](C)O3)[C@H](N(C)C)[C@H]2O)[C@@H](CC=O)C[C@@H](C)C(=O)/C=C/C(C)=C/[C@@H]1CO[C@@H]1O[C@H](C)[C@@H](O)[C@@H](OC)[C@H]1OC [Tylosin (phosphate)] | 1132.19 RFU |
| CC[C@H]1OC(=O)C[C@@H](O)[C@H](C)[C@@H](O[C@@H]2O[C@H](C)[C@@H](O[C@H]3C[C@@](C)(O)[C@@H](O)[C@H](C)O3)[C@H](N(C)C)[C@H]2O)[C@@H](CC=O)C[C@@H](C)C(=O)/C=C/C(C)=C/[C@@H]1CO[C@@H]1O[C@H](C)[C@@H](O)[C@@H](OC)[C@H]1OC.O=C(O)C(O)C(O)C(=O)O [Tylosin (tartrate)] | 942.0391 RFU |
| NC(N)=O [Urea] | 934.3458 RFU and 864.3039 RFU |
| NC(=O)NCCC(=O)O [Ureidopropionic acid] | 1035.138 RFU |
| O=c1[nH]c(=O)c2[nH]c(=O)[nH]c2[nH]1.[Na] [Uric acid (sodium)] | 855.3809 RFU |
| O=C(O)/C=C/c1c[nH]cn1 [Urocanic acid] | 1101.226 RFU |
| C[C@H](CCC(=O)O)[C@H]1CC[C@H]2[C@@H]3[C@@H](O)C[C@@H]4C[C@H](O)CC[C@]4(C)[C@H]3C[C@H](O)[C@]12C [Ursocholic acid] | 879.9608 RFU |
| C=C(C)[C@@H]1CCC2=CCC[C@@H](C)[C@]2(C)C1 [Valencene] | 980.1668 RFU |
| COc1cc(CC(=O)C(=O)O)ccc1O [Vanilpyruvic acid] | 1086.418 RFU |
| NC(=O)CC[C@@H]1NC(=O)[C@H](Cc2ccccc2)NC(=O)[C@H](Cc2ccc(O)cc2)NC(=O)[C@@H](N)CSSC[C@@H](C(=O)N2CCC[C@H]2C(=O)N[C@@H](CCCN=C(N)N)C(=O)NCC(N)=O)NC(=O)[C@H](CC(N)=O)NC1=O [Vasopressin] | 1150.397 RFU |
| COc1ccc(C=O)cc1OC [Veratraldehyde] | 898.3756 RFU and 979.6116 RFU |
| COc1ccc(C(=O)O)cc1OC [Veratric acid] | 944.3491 RFU |
| COC(=O)C1=CO[C@@H](O[C@@H]2O[C@H](CO)[C@@H](O)[C@H](O)[C@H]2O)[C@H]2[C@@H]1C(=O)C[C@@H]2C [Verbenalin] | 1051.385 RFU |
| O=c1cc(-c2ccc(O)cc2)oc2c([C@@H]3O[C@H](CO)[C@@H](O)[C@H](O)[C@H]3O)c(O)c([C@@H]3O[C@H](CO)[C@@H](O)[C@H](O)[C@H]3O)c(O)c12 [Vicenin 2] | 893.9745 RFU |
| O=c1cc(-c2ccc(O)cc2)oc2c([C@@H]3OC[C@@H](O)[C@H](O)[C@H]3O)c(O)c([C@@H]3O[C@H](CO)[C@@H](O)[C@H](O)[C@H]3O)c(O)c12 [Vicenin 3] | 1057.755 RFU |
| O=c1cc(-c2ccc(O)cc2)oc2c([C@@H]3O[C@H](CO)[C@@H](O)[C@H](O)[C@H]3O)c(O)c([C@@H]3OC[C@@H](O)[C@H](O)[C@H]3O)c(O)c12 [Vicenin-1] | 1046.904 RFU |
| C[C@@H]1O[C@@H](O[C@@H]2[C@@H](O)[C@H](O)[C@@H](CO)O[C@H]2c2c(O)cc(O)c3c(=O)cc(-c4ccc(O)cc4)oc23)[C@H](O)[C@H](O)[C@H]1O [Vitexin-2″-O-rhamnoside] | 747.1181 RFU |
| CC1=C(C)C(=O)O[C@@H]([C@](C)(O)[C@H]2CC[C@H]3[C@@H]4[C@@H]5O[C@@H]5[C@@]5(O)CC=CC(=O)[C@]5(C)[C@H]4CC[C@]23C)C1 [Withanolide A] | 840.7696 RFU |
| O=c1ccc2cc3ccoc3c(O)c2o1 [Xanthotoxol] | 1117.591 RFU |

| Molecule | Lipase (RFU) |
| --- | --- |
| O=C(O)c1cc(O)c2cccc(O)c2n1 [Xanthurenic acid] | 1023.37 RFU |
| OC1OC[C@@H](O[C@@H]2OC[C@@H](O)[C@H](O)[C@H]2O)[C@H](O)[C@H]1O (stereo partly shown) [Xylobiose] | 862.1511 RFU |
| C[C@H]1CCCC(=O)CCC/C=C/c2cc(O)cc(O)c2C(=O)O1 [Zearalenone] | 758.7174 RFU |
| CC1=C(/C=C/C(C)=C/C=C/C(C)=C/C(=O)O)C(C)(C)CCC1=O [all-trans-4-Oxoretinoic acid] | 984.8749 RFU |
| C/C=C/c1cc(OC)c(OC)cc1OC [alpha-Asarone] | 956.156 RFU |
| COc1c(O)cc2oc3cc(O)c(CC=C(C)C)c(O)c3c(=O)c2c1CC=C(C)C [alpha-Mangostin] | 1061.941 RFU |
| CC(C)=CC(=O)C[C@H](C)c1ccc(C)cc1 [ar-Turmerone] | 1106.99 RFU |
| O=P(O)(O)OC(CO)CO [b-Glycerol Phosphate] | 984.3562 RFU |
| COc1cc2oc3cc(O)c(OC)c(CC=C(C)C)c3c(=O)c2c(O)c1CC=C(C)C [beta-Mangostin] | 828.6091 RFU |
| O=C(O)[C@@H]1C[C@H](O)CN1 [cis-4-Hydroxy-L-proline] | 944.0714 RFU |
| C=C(C)[C@H]1C=C[C@@](C)(O)CC1 [cis-Isolimonenol] | 930.1567 RFU |
| CC/C=C\CC1=C(C)CCC1=O [cis-Jasmone] | 1015.76 RFU |
| O[C@H]1[C@H](O)[C@@H](O)[C@H](O)[C@@H](O)[C@H]1O [i-Inositol] | 1026.636 RFU and 1128.491 RFU |
| COc1cccc(C=O)c1 [m-Anisaldehyde] | 1038.646 RFU |
| Cc1cccc(C=O)c1 [m-Tolualdehyde] | 859.0901 RFU |
| OC[C@@H](O)[C@@H](O)CO [meso-Erythritol] | 838.849 RFU |
| Cc1ccc(OS(=O)(=O)[O-])cc1.[K+] [p-Cresyl sulfate (potassium)] | 825.569 RFU |
| Cc1ccc(C=O)cc1 [p-Tolualdehyde] | 1029.761 RFU |
| O=C(O)[C@@H]1C[C@@H](O)CN1 [trans-4-Hydroxy L-Proline] | 608.0856 RFU |
| O=C(O)/C=C(\CC(=O)O)C(=O)O [trans-Aconitic acid] | 946.0721 RFU |
| CCCCCC/C=C/CCCCCCCCCC(=O)O [trans-Vaccenic acid] | 932.0426 RFU |
| C/C(=C\CNc1ncnc2c1ncn2[C@@H]1O[C@H](CO)[C@@H](O)[C@H]1O)CO [trans-Zeatinriboside] | 823.084 RFU |
| CC1=CCC(=O)O1 [α-Angelica lactone] | 1137.248 RFU |

| Molecule | Lipase (RFU) |
| --- | --- |
| OC[C@H]1O[C@@H](O[C@H]2[C@H](O)[C@@H](O)[C@@H](O)O[C@@H]2CO)[C@H](O)[C@@H](O)[C@H]1O [α-Lactose] | 963.7922 RFU |
| C[C@H]1CC[C@@H]2[C@@H](C)[C@H]3[C@H](C[C@H]4[C@@H]5CC=C6C[C@@H](O[C@@H]7O[C@H](CO)[C@H](O)[C@H](O[C@@H]8O[C@H](CO)[C@@H](O)[C@H](O)[C@H]8O)[C@H]7O[C@@H]7O[C@@H](C)[C@H](O)[C@@H](O)[C@H]7O)CC[C@]6(C)[C@H]5CC[C@]34C)N2C1 [α-Solanine] | 840.4474 RFU |
| CC(C)[C@]12CC(=O)[C@H](C)[C@H]1C2 [α-Thujone] | 659.4321 RFU |
| N#CCCN [β-Aminopropionitrile] | 985.2024 RFU |
| CC1(C)CC[C@]2(C)CC[C@]3(C)C(=CC[C@@H]4[C@@]5(C)CC[C@H](O)C(C)(C)[C@@H]5CC[C@]43C)[C@@H]2C1 [β-Amyrin] | 1183.423 RFU |
| CC1=C(/C=C/C(C)=C/C=C/C(C)=C/C=C/C=C(C)/C=C/C=C(\C)C=O)C(C)(C)CCC1 [β-Apo-8′-carotenal] | 958.4764 RFU and 851.8107 RFU |
| C[C@H]1[C@H](C)CC[C@]2(C)CC[C@]3(C)C(=CC[C@@H]4[C@@]5(C)CC[C@@H](O)[C@](C)(C(=O)O)[C@@H]5CC[C@]43C)[C@H]12 [β-Boswellic acid] | 813.2666 RFU |
| C=C1CC/C=C(\C)CC[C@@H]2[C@@H]1CC2(C)C [β-Caryophyllene] | 881.1948 RFU |
| OC[C@H]1O[C@@H]2O[C@H]3[C@H](O)[C@@H](O)[C@@H](O[C@H]4[C@H](O)[C@@H](O)[C@@H](O[C@H]5[C@H](O)[C@@H](O)[C@@H](O[C@H]6[C@H](O)[C@@H](O)[C@@H](O[C@H]7[C@H](O)[C@@H](O)[C@@H](O[C@H]8[C@H](O)[C@@H](O)[C@@H](O[C@H]1[C@H](O)[C@H]2O)O[C@@H]8CO)O[C@@H]7CO)O[C@@H]6CO)O[C@@H]5CO)O[C@@H]4CO)O[C@@H]3CO [β-Cyclodextrin] | 886.2621 RFU |
| C=C[C@]1(C)CC[C@@H](C(=C)C)C[C@H]1C(=C)C [β-Elemene] | 1099.979 RFU |
| OC[C@H]1O[C@@H](OC[C@H]2O[C@@H](O)[C@H](O)[C@@H](O)[C@@H]2O)[C@H](O)[C@@H](O)[C@@H]1O [β-Gentiobiose] | 997.1115 RFU |
| C=C1CCC2CC1C2(C)C (stereo not drawn) [β-Pinene] | 851.1223 RFU |
| CC(C)=CCC/C(C)=C/CC/C(C)=C/CC[C@]1(C)CCc2c(C)c(O)cc(C)c2O1 [β-Tocotrienol] | 668.6336 RFU |
| N#CC[C@H](N)C(=O)O [β-cyano-L-Alanine] | 869.3786 RFU |
| N[C@@H](CCC(=O)N[C@@H](Cc1ccccc1)C(=O)O)C(=O)O [γ-Glu-Phe] | 1077.051 RFU |
| CCC1CCC(=O)O1 (stereo not shown) [γ-Hexalactone] | 1020.576 RFU |
| CC(C)=CCC/C(C)=C/CC/C(C)=C/CC[C@]1(C)CCc2cc(O)c(C)c(C)c2O1 [γ-Tocotrienol] | 703.9438 RFU and 665.753 RFU |
| CCCCCC1CCCC(=O)O1 (stereo not shown) [δ-Decalactone] | 1070.795 RFU |
| CC(C)=CCC/C(C)=C/CC/C(C)=C/CC[C@]1(C)CCc2cc(O)cc(C)c2O1 [δ-Tocotrienol] | 1061.05 RFU |
| O=C1CCCCCCCCCCCCCCO1 [ω-Pentadecalactone] | 959.0542 RFU |
| (+)-Catechin hydrate | 928.2252 RFU |
